# Laboratory results reported in patent US20250205349A1, “ANTI-HUMAN TROP2 ANTIBODY-CAMPTOTHECIN DRUG CONJUGATE AND MEDICAL USE THEREOF” (SYSTIMMUNE, INC., priority 2021, published 2025).
# Where two headings read alike, the source gives them in different places. Starred links: 1 amine or outer side, 2 acyl side, 3 side chain; linkers in the order of their positions; H or OH if unused. Non-standard residues stand in square brackets, D forms with d. Residues, ends and D or L forms follow the SMILES beside them. *: point of attachment. Exatecan = CC[C@@]1(O)C(=O)OCc2c1cc1n(c2=O)Cc2c-1nc1cc(F)c(C)c3c1c2[C@@H](N*)CC3; X1 = O=C(O)CNC[C@@H](C(=O)*)N1C(=O)C=CC1=O; X2 = C[C@H](OCN[*:1])C(=O)[*:2]
# Legend:
# [1] = Description: The mixture of an ADC and IgG-depleted plasma were formulated with the final concentration of ADC being 0.6 mg/mL. The plasma mixture was incubated in a water bath box in a 37° C. incubator. The incubation time was set to 0 days, 3 days, and 7 days. At the same time, the unincubated plasma control was set. The incubated sample was purified and extracted and then tested for the DAR to reflect the stability of the ADC in plasma.
# [2] = Percentage of monomer of ADCs by SEC-HPLC; format: physicochemical
# Description: • Chromatography column: Biocore SEC-300 5 μm, 4.6×300 mm; • Manufacturer: NanoChrom, Product code: B213-050030-04630S; • Mobile phase: 50 mM PB+300 mM NaCl+200 mM Arg+5% IPA, pH=6.5;
# • Chromatography column: ACQUITY UPLC Protein SEC 4.6×150 mm […] • Manufacturer: waters Product code: 186005225 • Mobile phase: 50 mM PB+300 mM NaCl+200 mM Arg+5% IPA, pH=6.5
# [3] = molecular target: T1, recombinant TROP2-His*6 antigen (Homo sapiens, UniProt P09758); experiment: Double-antigen sandwich ELISA, relative affinity to TROP2; format: binding; details: OD450 nm, EC50 compared
# T1 construct: His*6
# T1 sequence (P09758 27-323): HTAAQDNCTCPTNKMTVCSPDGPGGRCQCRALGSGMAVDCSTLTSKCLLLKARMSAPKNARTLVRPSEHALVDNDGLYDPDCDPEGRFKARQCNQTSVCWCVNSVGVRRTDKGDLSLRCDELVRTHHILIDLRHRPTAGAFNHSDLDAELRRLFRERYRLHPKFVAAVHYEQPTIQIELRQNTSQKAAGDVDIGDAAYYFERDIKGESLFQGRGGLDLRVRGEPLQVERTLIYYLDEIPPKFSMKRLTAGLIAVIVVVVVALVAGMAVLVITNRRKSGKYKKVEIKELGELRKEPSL
# Description: The recombinant TROP2-His*6 antigen was coated on the plate and then blocked with 1% bovine serum albumin; hu4D3 and the corresponding ADC and TINA1 and the corresponding ADC were diluted respectively, and then serially diluted 3 folds at a starting concentration of 2000 ng/mL respectively, for a total of 11 concentrations. After the sample was incubated on the coated elisa plate for a period of time, the secondary antibody labeled by goat anti-human Fc-HRP was added for incubation. Finally, TMB color development was performed and terminated by sulfuric acid solution, and the absorption value at 450 nm was detected on an elisa plate. The results are plotted on concentration at OD450 nm.
# [4] = test system: human tumor cell line (BxPC-3); experiment: In vitro drug efficacy of antibodies and ADCs, MTS cell viability; format: cell-based; details: BxPC-3, 5 days
# Description: In the present invention, a human tumor cell line (BxPC-3) was used as an experimental model to evaluate the in vitro efficacy of ADCs. A certain number of tumor cells were inoculated into a 96-well plate, and gradient dilutions of the test antibody and the corresponding ADC were added to the cells, the cells were treated for 5 days, cell viability was detected by using MTS, and IC50 was calculated to evaluate the in vitro inhibitory effect of the test antibody and ADCs on the tumor cell line. The cells were treated for 5 days with the antibody drugs having initial concentration of 500 nM, diluted 7 folds, with a total of 8 concentration points. Finally, the cell survival was calculated as: survival rate=(experimental group-blank group)/(control group-blank group)×100%. Then, by using Graph Pad Prism, the curve was fitted and the half inhibitory concentration (IC50) was calculated.
# [5] = test system: HCC827; experiment: In vitro efficacy of naked antibodies and Compound d3, d38, d39 and d44, MTS; format: cell-based; details: Homo sapiens, 1 uM starting concentration
# Description: (§1) In a 96-well plate, cells were plated at an appropriate cell density. After 24 h, the drugs were added. After 24 h, the drugs were diluted with the test medium (1 uM starting concentration, 5-fold dilution, 9 concentrations, test medium was added in the tenth column as blank control). The diluted drugs were added to the corresponding cell wells and then shaken for 3 min with a microplate shaker (model: MX100-4A) at a shaking speed of 550 rpm/min. After shaking, the cells were incubated in a carbon dioxide incubator for […].
# (§2) After 4 days, the MTS reagent was taken out, thawed at room temperature in the dark, and vortex mixed thoroughly. […] The cells were incubated for 2 h in the dark in an incubator. After the reaction, the 96-well plate was taken out for testing the OD490 nm absorption on an elisa plate, and the test data were recorded, organized, analyzed and stored.
# [6] = test system: SW620; experiment: as above; format: cell-based; details: Homo sapiens, SW-620, 1 uM starting concentration
# Description: as §1, §2
# [7] = test system: N87; experiment: as above; format: cell-based; details: Homo sapiens, 1 uM starting concentration
# Description: as §1, §2
# [8] = test system: SW620 + A431; experiment: as above; format: cell-based; details: Homo sapiens, 1 uM starting concentration
# Description: as §1, §2
# [9] = test system: Fadu; experiment: as above; format: cell-based; details: Homo sapiens, 1 uM starting concentration
# Description: as §1, §2
# [10] = humans; cited from earlier work
# [11] = mice; cited from earlier work
# [12] = in vivo; cited from earlier work
# [13] = test system: human non-small cell lung cancer cell HCC827; experiment: In vitro inhibitory effect of Compound 5A, MTS; format: cell-based
# Description: (§3) The UV light of the biosafety cabinet was turned on 30 min in advance, and then the ventilation system was enabled for 3 min. The growth medium, the detection medium, D-PBS and trypsin were preheated in a 37° C. constant-temperature water bath, and then had surface disinfected with alcohol and then placed in the biosafety cabinet. The cells with a confluence rate of about 80% were placed in the biosafety cabinet, the old culture medium was removed, the cells were rinsed with D-PBS, and the D-PBS was then discarded. The cells were digested with trypsin for 2-3 min, then neutralized with the growth medium and centrifuged at 1200 rpm for 3 min, and the supernatant was removed. The cell solution was mixed with 4 mL of test medium, and 100 μL of cell solution was taken for counting (where 50 μL of cell solution was well mixed with 50 μL of Trypan Blue Stain and then counted). According to a pre-optimized cell plating density, the cells were plated in a 96-well plate at 80 ul/well. […] After 24 hours of plating, diluted antibodies were added with 20 uL per well and control was set. Only 20 μL of test medium was added to cells in column 11. Two duplicate wells were set at each concentration. The cells were then well mixed on the cell vortex shaker at 550 rpm for 3 min.
# (§4) 240 μL of test medium was added to the subsequent columns 2 to 10. 60 μL of the well mixed test solution was taken from the first column and added to the second column, and the cell solution was mixed up and down with a pipette for 10 times, and then the pipette tip was discarded. The same operation was performed for other seven concentrations one by one.
# (§5) After 4 days, the MTS reagent was taken out, thawed at room temperature in the dark, and vortex mixed thoroughly. In the biosafety cabinet, 20 μL of CellTiter One Solution Reagen MTS reagent was added per 100 μL cell culture volume along the side wall of each well, and the plate surface was gently tapped to well mix the MTS solution. The cells were incubated for 2 h in the dark in an incubator. After the reaction, the 96-well plate was taken out for testing the OD490 nm absorption on an elisa plate, and the test data were recorded, organized, analyzed and stored.
# [14] = test system: human breast cancer cell SK-BR-3; experiment: In vitro inhibitory effect of Compound 5A, MTS; format: cell-based
# Description: as §3, §4, §5
# [15] = test system: Human non-small cell lung adenocarcinoma cell H1975; experiment: In vitro inhibitory effect of Compound 5A, MTS; format: cell-based
# Description: as §3, §4, §5
# [16] = test system: human plasma cell leukemia cell H929; experiment: In vitro inhibitory effect of Compound 5A, MTS; format: cell-based
# Description: as §3, §4, §5
# [17] = test system: human orthotopic pancreatic adenocarcinoma cell BXPC-3; experiment: In vitro inhibitory effect of Compound 5A, MTS; format: cell-based
# Description: as §3, §4, §5
# [18] = test system: human gastric cancer cell NCI-N87; experiment: In vitro inhibitory effect of Compound 5A, MTS; format: cell-based
# Description: as §3, §4, §5
# [19] = test system: human multiple myeloma cell RPMI8226; experiment: In vitro inhibitory effect of Compound 5A, MTS; format: cell-based
# Description: as §3, §4, §5
# [20] = test system: human leukemia cell JJN-3; experiment: In vitro inhibitory effect of Compound 5A, MTS; format: cell-based
# Description: as §3, §4, §5
# [21] = test system: human epidermal cancer cell A431 + human colon cancer cell SW620; experiment: In vitro inhibitory effect of Compound 5A, MTS; format: cell-based
# Description: as §3, §4, §5
# [22] = test system: human breast cancer cell MDA-MB-361; experiment: In vitro inhibitory effect of Compound 5A, MTS; format: cell-based
# Description: as §3, §4, §5
# [23] = test system: human epidermal cancer cell A431; experiment: In vitro inhibitory effect of Compound 5A, MTS; format: cell-based
# Description: as §3, §4, §5
# [24] = test system: human breast cancer cell ZR-75-1; experiment: In vitro inhibitory effect of Compound 5A, MTS; format: cell-based
# Description: as §3, §4, §5
compound,measurement,setting,value
DS1062a (DAR = 4),DAR Incubated in plasma for 0 days,"[1]; ADC 0.6 mg/mL in IgG-depleted plasma, 37° C., 0 days",4.21
same,DAR Incubated in plasma for 3 days,"[1]; ADC 0.6 mg/mL in IgG-depleted plasma, 37° C., 3 days",3.75
same,DAR Incubated in plasma for 7 days,"[1]; ADC 0.6 mg/mL in IgG-depleted plasma, 37° C., 7 days",3.30
same,DAR Unincubated,[1]; unincubated control,4.13
same,Aggregate %,[2],3.431%
same,Degradation %,[2],0.108%
same,Monomer %,[2],96.461%
DS1062a [reference compound],plasma stability (in words),[1]; change in DAR during incubation in plasma,poor plasma stability
same,affinity for antigen TROP2 compared with the corresponding antibody,[3],maintains the same affinity
same,IC50,[4],308 nM
CC[C@@]1(O)C(=O)OCc2c1cc1n(c2=O)Cc2c-1nc1cc(F)c(C)c3c1c2[C@H](NC(=O)C1(CO)CCC1)CC3 [d44],IC50,[5],0.038 nM
same,IC50,[6],0.014 nM
same,IC50,[7],0.197 nM
same,IC50,[8],0.182 nM
same,IC50,[9],0.029 nM
IMMU-132,elimination half-life,[10],about 11 h
same,elimination half-life,[11],about 11 h
same,mean residence time,[12],about 15.4 h
CC[C@@]1(O)C(=O)OCc2c1cc1n(c2=O)Cc2c-1nc1cc(F)c(C)c3c1c2[C@@H](NC(=O)[C@H](C)OCNC(=O)CNC(=O)[C@H](Cc1ccccc1)NC(=O)CNC(=O)CNC(=O)[C@H](CNCC(=O)O)N1C(=O)C=CC1=O)CC3 [Compound 5A] (X1-GGFG[X2]-Exatecan),Efficacy %,[13]; HCC827,80.57%
same,IC50,"[13]; Homo sapiens, 96 h, HCC827, 4 days, MTS",656 nM
same,IC50,"[14]; Homo sapiens, 96 h, SK-BR-3, 4 days, MTS",732 nM
same,Efficacy %,[14]; SK-BR-3,70.9%
same,Efficacy %,[15]; H1975,76.78%
same,IC50,"[15]; Homo sapiens, NCI-H1975, 96 h, H1975, 4 days, MTS",970 nM
same,Efficacy %,[16]; H929,99.03%
same,IC50,"[16]; Homo sapiens, NCI-H929, 96 h, H929, 4 days, MTS",23.9 nM
same,Efficacy %,[17]; BxPC-3,64.4%
same,IC50,"[17]; Homo sapiens, 96 h, BxPC-3, 4 days, MTS",320 nM
same,IC50,"[18]; Homo sapiens, 96 h, NCI-N87, 4 days, MTS",1020 nM
same,Efficacy %,[18]; NCI-N87,63.93%
same,IC50,"[19]; Homo sapiens, RPMI-8226, 96 h, RPMI8226, 4 days, MTS",147 nM
same,Efficacy %,[19]; RPMI8226,93.61%
same,IC50,"[20]; Homo sapiens, 96 h, JJN-3, 4 days, MTS",36.1 nM
same,Efficacy %,[20]; JJN-3,80.59%
same,Efficacy %,[21]; A431 + SW620,68.26%
same,IC50,"[21]; Homo sapiens, 96 h, A431 + SW620, 4 days, MTS",605 nM
same,IC50,"[22]; Homo sapiens, 96 h, MDA-MB-361, 4 days, MTS",572 nM
same,Efficacy %,[22]; MDA-MB-361,62.34%
same,Efficacy %,[23]; A431,84.97%
same,IC50,"[23]; Homo sapiens, A-431, 96 h, A431, 4 days, MTS",439 nM
same,IC50,"[24]; Homo sapiens, 96 h, ZR-75-1, 4 days, MTS",558 nM
same,Efficacy %,[24]; ZR-75-1,54.79%
CC[C@@]1(O)C(=O)OCc2c1cc1n(c2=O)Cc2c-1nc1cc(F)c(C)c3c1c2[C@@H](NC(=O)[C@H](C)O)CC3 [d3],IC50,[5],0.778 nM
same,IC50,[6],0.543 nM
same,IC50,[7],1.61 nM
same,IC50,[8],2.81 nM
same,IC50,[9],0.531 nM
CC[C@@]1(O)C(=O)OCc2c1cc1n(c2=O)Cc2c-1nc1cc(F)c(C)c3c1c2[C@H](NC(=O)[C@@H](O)C1CC1)CC3 [d39],IC50,[5],0.092 nM
same,IC50,[6],< 0.005 nM
same,IC50,[7],0.466 nM
same,IC50,[8],0.468 nM
same,IC50,[9],0.11 nM
